From patent US8933015B2, “Macrocyclic inhibitors of flaviviridae viruses” (Gilead Sciences, Inc., priority 2010, dated 2015)
pEC50, pIC50: −log10 of the molar value.

How the values were obtained:
[1] = tested on: human hepatoma Huh-7 cell line harboring a HCV replicon; assay: HCV replicon assay (inhibition of viral replication, luciferase); assay type: cell-based; settings: Hepatitis C virus; for pEC50: Huh-7, 72 h; for inhibition at 1 µM: Huh-7, read-out: % inhibition at 1 μM
Protocol: The anti-HCV activity of the compounds of this invention was tested in a human hepatoma Huh-7 cell line harboring a HCV replicon. The assay comprised the following steps:
Step 1: Compound Preparation and Serial Dilution
Serial dilution was performed in 100% DMSO in a 384-well plate. A solution containing a compound at 225-fold concentration of the starting final serial dilution concentration was prepared in 100% DMSO and 15 uL added to the pre-specified wells in column 3 or 13 of a polypropylene 384-well plate. The rest of the 384-well plate was filled with 10 uL 100% DMSO except for columns 23 and 24, where 10 uL of 500 uM a HCV protease inhibitor (ITMN-191) in 100% DMSO was added. […] The plate was then placed on a Biomek FX Workstation to start the serial dilution. The serial dilution was performed for ten cycles of 3-fold dilution from column 3 to 12 or from column 13 to 22.
Step 2: Cell Culture Plate Preparation and Compound Addition
To each well of a black polypropylene 384-well plate, 90 μL of cell media containing 1600 suspended Huh-7 HCV replicon cells was added with a Biotek uFlow Workstation. A volume of 0.4 μL of the compound solution was transferred from the serial dilution plate to the cell culture plate on a Biomek FX Workstation. The DMSO concentration in the final assay condition was 0.44%. The plates were incubated for 3 days at 37° C. with 5% CO2 and 85% humidity.
Step 3: Detection of Cytotoxicity and Inhibition of Viral Replication
b) Assessment of inhibition of viral replication: The calcein-PBS solution in the 384-well cell culture plate was aspirated with a Biotek EL405 plate-washer. A volume of 20 μL of Dual-Glo luciferase buffer (Promega, Dual-Glo Luciferase Assay Reagent, cat. #E298B) was added to each well of the plate with a Biotek uFlow Workstation. The plate was incubated for 10 minutes at room temperature. A volume of 20 μL of a solution containing 1:100 mixture of Dual-Glo Stop & Glo substrate (Promega, Dual-Glo Luciferase Assay Reagent, cat. #E313B) and Dual-Glo Stop & Glo buffer (Promega, Dual-Glo Luciferase Assay Reagent, cat. #E314B) was then added to each well of the plate with a Biotek uFlow Workstation. The plate was incubated at room temperature for 10 minutes before the luminescence signal was measured with a Perkin Elmer Envision Plate Reader.
The percent cytotoxicity was determined by calcein AM conversion to fluorescent product. The average fluorescent signal from the DMSO control wells were defined as 100% nontoxic. The individual fluorescent signal from testing compound treated well was divided by the average signal from DMSO control wells and then multiplied by 100% to get the percent viability. The percent anti-HCV replication activity was determined by the luminescence signal from the testing well compared to DMSO controls wells. The background signal was determined by the average luminescence signal from the HCV protease inhibitor treated wells and was subtracted from the signal from the testing wells as well as the DMSO control wells.
Where b is Hill's coefficient. See, for reference, Hill, A. V., The Possible Effects of the Aggregation of the Molecules of Hemoglobin on its Dissociation Curves, J. Physiol. 40: iv-vii. (1910).
% inhibition values at a specific concentration, for example 2 μM, can also be derived from the formula above.
The EC50's are presented as a % inhibition.

[2] = biological target: cyclophilin A (Homo sapiens, UniProt P62937); assay: Cyclophilin A TR-FRET competitive binding assay; settings: inhibition of cyclophilin binding; 5 nM CypA, 150 nM CsA-Cy5
Protocol: Cyclophilin A TR-FRET Competitive Binding Assay
Inhibitor potency was measured using a competitive binding assay with a time-resolved fluorescence resonance energy transfer (TR-FRET) readout. […] The total volume of the assay solution was 100 μL. […] An IC50 value was calculated using a four-parameter logistic fit.

cyclophilin A, sequence (P62937 whole entry, species assumed): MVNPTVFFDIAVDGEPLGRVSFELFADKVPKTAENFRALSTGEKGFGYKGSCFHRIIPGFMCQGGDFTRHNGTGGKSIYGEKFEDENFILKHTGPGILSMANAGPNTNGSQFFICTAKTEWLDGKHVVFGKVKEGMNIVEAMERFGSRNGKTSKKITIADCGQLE

Row | SMILES | pEC50 [1] | inhibition at 1 µM [1] [%] | pIC50 [2]
1 | CO[C@@H]1[C@@H](C)[C@@H](OC)/C=C/C=C/CCOC(=O)[C@@H]2CCCN(N2)C(=O)[C@H](Cc2cccc(O)c2)NC(=O)[C@H](C(C)C)NC(=O)[C@@H]1C [Compound 3, (13E,15E)-(3S,6S,9R,10R,11S,12S,21S)-3-(3-Hydroxy-benzyl)-6-isopropyl-10,12-dimethoxy-9,11-dimethyl-19-oxa-1,4,7,25-tetraaza-bicyclo[19.3.1]pentacosa-13,15-diene-2,5,8,20-tetraone] | > 6.00 | 59 | –
2 | CO[C@@H]1[C@@H](C)[C@@H](OC)/C=C/C=C/CCNC(=O)[C@@H]2CCCN(N2)C(=O)[C@H](Cc2cccc(O)c2)NC(=O)[C@H](C(C)C)NC(=O)[C@@H]1C [Compound 4, (13E,15E)-(3S,6S,9R,10R,11S,12S,21S)-3-(3-Hydroxy-benzyl)-6-isopropyl-10,12-dimethoxy-9,11-dimethyl-1,4,7,19,25-pentaaza-bicyclo[19.3.1]pentacosa-13,15-diene-2,5,8,20-tetraone] | 5.00 to 5.96 | 10 | > 7.00
3 | CO[C@@H]1[C@@H](C)[C@@H](OC)/C=C/c2cccc(c2)COC(=O)[C@@H]2CCCN(N2)C(=O)[C@H](Cc2cccc(O)c2)NC(=O)[C@H](C(C)C)NC(=O)[C@@H]1C [Compound 5, (E)-(5S,11S,14S,17R,18R,19S,20S)-11-(3-Hydroxy-benzyl)-14-isopropyl-18,20-dimethoxy-17,19-dimethyl-3-oxa-9,12,15,28-tetraaza-tricyclo[21.3.1.1*5,9*]octacosa-1(27),21,23,25-tetraene-4,10,13,16-tetraone] | > 6.00 | 67 | > 7.00
4 | CC(C)[C@@H]1NC(=O)[C@H](C)[C@H](O)c2ccc(cc2)/C=C/CCOC(=O)[C@@H]2CCCN(N2)C(=O)[C@H](Cc2cccc(O)c2)NC1=O [Compound 8, (E)-(8S,14S,17S,20R,21S)-21-Hydroxy-14-(3-hydroxy-benzyl)-17-isopropyl-20-methyl-6-oxa-12,15,18,27-tetraaza-tricyclo[20.2.2.1*8,12*]heptacosa-1(25),2,22(26),23-tetraene-7,13,16,19-tetraone] | – | 13 | 6.00 to 7.00
5 | CC(C)[C@@H]1NC(=O)[C@H](C)[C@H](O)c2ccc(cc2)CCCCOC(=O)[C@@H]2CCCN(N2)C(=O)[C@H](Cc2cccc(O)c2)NC1=O [Compound 9, (8S,14S,17S,20R,21S)-21-Hydroxy-14-(3-hydroxy-benzyl)-17-isopropyl-20-methyl-6-oxa-12,15,18,27-tetraaza-tricyclo[20.2.2.1*8,12*]heptacosa-1(25),22(26),23-triene-7,13,16,19-tetraone] | 4.00 to 5.00 | 4 | 5.00 to 6.00
6 | CO[C@@H]1CC/C=C/c2cccc(c2)COC(=O)[C@@H]2CCCN(N2)C(=O)[C@H](Cc2cccc(O)c2)NC(=O)[C@H](C(C)C)NC(=O)[C@@H]1C [Compound 10, (E)-(5S,11S,14S,17R,18R)-11-(3-Hydroxy-benzyl)-14-isopropyl-18-methoxy-17-methyl-3-oxa-9,12,15,28-tetraaza-tricyclo[21.3.1.1*5,9*]octacosa-1(27),21,23,25-tetraene-4,10,13,16-tetraone] | – | 59 | –
7 | CO[C@@H]1CC/C=C/C=C/CCOC(=O)[C@@H]2CCCN(N2)C(=O)[C@H](Cc2cccc(O)c2)NC(=O)[C@H](C(C)C)NC(=O)[C@@H]1C [Compound 11, (13E,15E)-(3S,6S,9R,10R,21S)-3-(3-Hydroxy-benzyl)-6-isopropyl-10-methoxy-9-methyl-19-oxa-1,4,7,25-tetraaza-bicyclo[19.3.1]pentacosa-13,15-diene-2,5,8,20-tetraone] | > 6.00 | 67 | –
8 | CO[C@@H]1[C@@H](C)[C@@H](OC)/C=C/C=C/C[C@@H](C)OC(=O)[C@@H]2CCCN(N2)C(=O)[C@H](Cc2cccc(O)c2)NC(=O)[C@H](C(C)C)NC(=O)[C@@H]1C [Compound 12, (13E,15E)-(3S,6S,9R,10R,11S,12S,18R,21S)-3-(3-Hydroxy-benzyl)-6-isopropyl-10,12-dimethoxy-9,11,18-trimethyl-19-oxa-1,4,7,25-tetraaza-bicyclo[19.3.1]pentacosa-13,15-diene-2,5,8,20-tetraone] | > 6.00 | 82 | > 7.00
9 | CO[C@@H]1CC/C=C/c2cccc(c2)[C@@H](C)OC(=O)[C@@H]2CCCN(N2)C(=O)[C@H](Cc2cccc(O)c2)NC(=O)[C@H](C(C)C)NC(=O)[C@@H]1C [Compound 13, (E)-(2R,5S,11S,14S,17R,18R)-11-(3-Hydroxy-benzyl)-14-isopropyl-18-methoxy-2,17-dimethyl-3-oxa-9,12,15,28-tetraaza-tricyclo[21.3.1.1*5,9*]octacosa-1(26),21,23(27),24-tetraene-4,10,13,16-tetraone] | > 6.00 | 93 | –
10 | CO[C@@H]1CC/C=C/c2cccc(c2)[C@@H](C)NC(=O)[C@@H]2CCCN(N2)C(=O)[C@H](Cc2cccc(O)c2)NC(=O)[C@H](C(C)C)NC(=O)[C@@H]1C [Compound 16, (E)-(2R,5S,11S,14S,17R,18R)-11-(3-Hydroxy-benzyl)-14-isopropyl-18-methoxy-2,17-dimethyl-3,9,12,15,28-pentaaza-tricyclo[21.3.1.1*5,9*]octacosa-1(27),21,23,25-tetraene-4,10,13,16-tetraone] | > 6.00 | 75 | > 7.00
11 | CO[C@@H]1CC/C=C/c2ccnc(c2)COC(=O)[C@@H]2CCCN(N2)C(=O)[C@H](Cc2cccc(O)c2)NC(=O)[C@H](C(C)C)NC(=O)[C@@H]1C [Compound 17, (E)-(1S,14R,15R,18S,21S)-21-(3-Hydroxy-benzyl)-18-isopropyl-14-methoxy-15-methyl-3-oxa-6,17,20,23,27-pentaaza-tricyclo[21.3.1.1*5,9*]octacosa-5,7,9(28),10-tetraene-2,16,19,22-tetraone] | > 6.00 | 56 | > 7.00
12 | CO[C@@H]1CC/C=C/c2cc(ccn2)COC(=O)[C@@H]2CCCN(N2)C(=O)[C@H](Cc2cccc(O)c2)NC(=O)[C@H](C(C)C)NC(=O)[C@@H]1C [Compound 18, (E)-(1S,14R,15R,18S,21S)-21-(3-Hydroxy-benzyl)-18-isopropyl-14-methoxy-15-methyl-3-oxa-8,17,20,23,27-pentaaza-tricyclo[21.3.1.1*5,9*]octacosa-,7,9(28),10-tetraene-2,16,19,22-tetraone] | > 6.00 | 54 | > 7.00
13 | CO[C@@H]1CC/C=C/c2ccc3c(c2)[C@@H](CC3)OC(=O)[C@@H]2CCCN(N2)C(=O)[C@H](Cc2cccc(O)c2)NC(=O)[C@H](C(C)C)NC(=O)[C@@H]1C [Compound 19] | > 6.00 | 70 | > 7.00
14 | CO[C@@H]1CCCCc2cccc(c2)[C@@H](C)OC(=O)[C@@H]2CCCN(N2)C(=O)[C@H](Cc2cccc(O)c2)NC(=O)[C@H](C(C)C)NC(=O)[C@@H]1C [Compound 20, (2R,5S,11S,14S,17R,18R)-11-(3-Hydroxy-benzyl)-14-isopropyl-18-methoxy-2,17-dimethyl-3-oxa-9,12,15,28-tetraaza-tricyclo[21.3.1.1*5,9*]octacosa-1(27),23,25-triene-4,10,13,16-tetraone] | > 6.00 | 92 | > 7.00
